Reference: ChEMBL document CHEMBL3991601, “The target landscape of clinical kinase drugs” (Science, 2017)
One block for each molecule: values may come before it. Activity calls are given as the source filed them. Unless noted, the calls are words filed in the database; no cut-off is given here.

How the values were obtained:
[1] = molecular target: Ras-related C3 botulinum toxin substrate 1 (Homo sapiens, UniProt P63000)
[2] = molecular target: Mast/stem cell growth factor receptor Kit (Homo sapiens, UniProt P10721)
[3] = molecular target: Activin receptor type-1-like (Homo sapiens, UniProt P37023)
[4] = molecular target: 5'-AMP-activated protein kinase subunit gamma-2 (Homo sapiens, UniProt Q9UGJ0)
[5] = molecular target: T1, General transcription and DNA repair factor IIH helicase subunit XPD (Homo sapiens, UniProt P18074)
T1 sequence (P18074 whole entry): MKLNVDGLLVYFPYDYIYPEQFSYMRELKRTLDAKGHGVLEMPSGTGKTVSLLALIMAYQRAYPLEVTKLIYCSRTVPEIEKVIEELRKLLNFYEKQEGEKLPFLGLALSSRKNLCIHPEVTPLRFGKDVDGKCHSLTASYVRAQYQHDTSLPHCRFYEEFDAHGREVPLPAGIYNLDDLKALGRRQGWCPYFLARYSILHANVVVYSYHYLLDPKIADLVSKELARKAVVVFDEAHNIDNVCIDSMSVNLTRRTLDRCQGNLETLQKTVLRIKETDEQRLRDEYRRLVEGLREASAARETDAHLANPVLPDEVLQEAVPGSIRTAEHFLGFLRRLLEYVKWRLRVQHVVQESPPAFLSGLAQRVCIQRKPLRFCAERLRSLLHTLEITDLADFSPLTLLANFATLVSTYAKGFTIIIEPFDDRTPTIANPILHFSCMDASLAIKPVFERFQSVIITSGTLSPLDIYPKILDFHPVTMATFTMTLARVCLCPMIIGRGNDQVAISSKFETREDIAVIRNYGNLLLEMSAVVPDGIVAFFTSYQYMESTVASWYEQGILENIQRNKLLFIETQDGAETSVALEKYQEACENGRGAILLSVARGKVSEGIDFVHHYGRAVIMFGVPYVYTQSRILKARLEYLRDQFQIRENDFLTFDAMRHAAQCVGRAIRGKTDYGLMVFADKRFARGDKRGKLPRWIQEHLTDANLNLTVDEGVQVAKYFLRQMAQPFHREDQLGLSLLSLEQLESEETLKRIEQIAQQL

[6] = molecular target: 5'-AMP-activated protein kinase subunit gamma-1 (Homo sapiens, UniProt P54619)
[7] = molecular target: T2, Uncharacterized protein FLJ45252 (Homo sapiens, UniProt Q6ZSR9)
T2 sequence (Q6ZSR9 whole entry): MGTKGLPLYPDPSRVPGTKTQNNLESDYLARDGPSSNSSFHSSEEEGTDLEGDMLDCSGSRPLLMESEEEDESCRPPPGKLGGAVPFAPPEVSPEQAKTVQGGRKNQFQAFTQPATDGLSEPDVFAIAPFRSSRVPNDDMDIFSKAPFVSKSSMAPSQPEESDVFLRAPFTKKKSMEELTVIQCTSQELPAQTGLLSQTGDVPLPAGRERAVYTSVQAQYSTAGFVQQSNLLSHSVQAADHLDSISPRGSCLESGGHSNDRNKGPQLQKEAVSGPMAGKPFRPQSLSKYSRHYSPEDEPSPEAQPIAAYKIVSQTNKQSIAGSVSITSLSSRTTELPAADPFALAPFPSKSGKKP

[8] = molecular target: Cyclin-dependent kinase 9 (Homo sapiens, UniProt P50750)
[9] = molecular target: Cyclin-dependent kinase 18 (Homo sapiens, UniProt Q07002)
[10] = molecular target: Actin-related protein 3 (Homo sapiens, UniProt P61158)

Chain of Activin receptor type-1-like (P37023 whole entry): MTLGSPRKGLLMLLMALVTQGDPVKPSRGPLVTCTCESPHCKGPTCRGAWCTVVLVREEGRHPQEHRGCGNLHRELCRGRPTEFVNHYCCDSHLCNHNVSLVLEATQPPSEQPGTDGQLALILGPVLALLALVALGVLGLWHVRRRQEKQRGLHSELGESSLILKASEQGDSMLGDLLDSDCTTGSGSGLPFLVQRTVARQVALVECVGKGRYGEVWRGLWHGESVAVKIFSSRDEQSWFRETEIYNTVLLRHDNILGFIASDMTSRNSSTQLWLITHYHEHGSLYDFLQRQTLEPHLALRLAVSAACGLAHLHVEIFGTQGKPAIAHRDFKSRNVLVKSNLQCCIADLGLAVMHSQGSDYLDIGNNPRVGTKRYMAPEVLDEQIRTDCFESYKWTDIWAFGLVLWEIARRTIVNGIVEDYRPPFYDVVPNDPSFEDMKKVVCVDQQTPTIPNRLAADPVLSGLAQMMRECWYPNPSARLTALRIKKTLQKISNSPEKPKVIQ
Chain of 5'-AMP-activated protein kinase subunit gamma-1 (P54619 whole entry): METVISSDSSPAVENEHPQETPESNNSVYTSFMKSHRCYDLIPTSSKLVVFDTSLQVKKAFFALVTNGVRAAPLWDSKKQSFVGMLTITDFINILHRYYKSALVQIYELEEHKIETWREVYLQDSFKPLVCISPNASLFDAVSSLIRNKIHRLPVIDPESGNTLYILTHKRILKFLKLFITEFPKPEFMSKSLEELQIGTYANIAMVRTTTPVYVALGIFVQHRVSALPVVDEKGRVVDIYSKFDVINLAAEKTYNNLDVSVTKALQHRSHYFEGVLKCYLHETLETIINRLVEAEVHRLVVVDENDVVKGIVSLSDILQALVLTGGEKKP
Chain of 5'-AMP-activated protein kinase subunit gamma-2 (Q9UGJ0 whole entry): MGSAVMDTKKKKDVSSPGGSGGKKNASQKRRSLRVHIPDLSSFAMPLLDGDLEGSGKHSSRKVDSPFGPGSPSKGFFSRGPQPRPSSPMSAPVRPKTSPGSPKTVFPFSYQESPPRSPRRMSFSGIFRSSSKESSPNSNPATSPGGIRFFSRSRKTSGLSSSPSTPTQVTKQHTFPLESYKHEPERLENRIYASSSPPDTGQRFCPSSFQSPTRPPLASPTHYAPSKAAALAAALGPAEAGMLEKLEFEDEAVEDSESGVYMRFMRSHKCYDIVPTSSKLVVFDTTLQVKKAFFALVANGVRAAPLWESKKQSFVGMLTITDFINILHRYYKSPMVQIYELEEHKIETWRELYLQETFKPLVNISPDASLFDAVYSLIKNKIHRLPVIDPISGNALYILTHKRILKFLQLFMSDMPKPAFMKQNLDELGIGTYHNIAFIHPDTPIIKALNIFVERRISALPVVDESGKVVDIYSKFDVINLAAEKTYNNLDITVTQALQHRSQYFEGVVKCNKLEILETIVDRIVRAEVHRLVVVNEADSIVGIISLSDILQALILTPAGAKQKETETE
Chain of Cyclin-dependent kinase 18 (Q07002 whole entry): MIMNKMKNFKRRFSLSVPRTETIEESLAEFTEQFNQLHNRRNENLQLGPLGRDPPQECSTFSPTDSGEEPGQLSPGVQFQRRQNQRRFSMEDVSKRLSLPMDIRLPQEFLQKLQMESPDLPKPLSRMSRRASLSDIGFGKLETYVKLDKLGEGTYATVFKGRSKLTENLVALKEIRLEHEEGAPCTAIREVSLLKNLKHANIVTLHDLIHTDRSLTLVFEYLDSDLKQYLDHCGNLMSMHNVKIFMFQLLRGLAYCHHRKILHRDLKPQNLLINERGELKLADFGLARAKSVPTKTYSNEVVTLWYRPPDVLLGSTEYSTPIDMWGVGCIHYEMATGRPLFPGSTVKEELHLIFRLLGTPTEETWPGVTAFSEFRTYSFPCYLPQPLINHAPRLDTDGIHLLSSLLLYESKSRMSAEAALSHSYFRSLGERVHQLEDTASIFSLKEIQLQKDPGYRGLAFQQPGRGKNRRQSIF
Chain of Mast/stem cell growth factor receptor Kit (P10721 whole entry): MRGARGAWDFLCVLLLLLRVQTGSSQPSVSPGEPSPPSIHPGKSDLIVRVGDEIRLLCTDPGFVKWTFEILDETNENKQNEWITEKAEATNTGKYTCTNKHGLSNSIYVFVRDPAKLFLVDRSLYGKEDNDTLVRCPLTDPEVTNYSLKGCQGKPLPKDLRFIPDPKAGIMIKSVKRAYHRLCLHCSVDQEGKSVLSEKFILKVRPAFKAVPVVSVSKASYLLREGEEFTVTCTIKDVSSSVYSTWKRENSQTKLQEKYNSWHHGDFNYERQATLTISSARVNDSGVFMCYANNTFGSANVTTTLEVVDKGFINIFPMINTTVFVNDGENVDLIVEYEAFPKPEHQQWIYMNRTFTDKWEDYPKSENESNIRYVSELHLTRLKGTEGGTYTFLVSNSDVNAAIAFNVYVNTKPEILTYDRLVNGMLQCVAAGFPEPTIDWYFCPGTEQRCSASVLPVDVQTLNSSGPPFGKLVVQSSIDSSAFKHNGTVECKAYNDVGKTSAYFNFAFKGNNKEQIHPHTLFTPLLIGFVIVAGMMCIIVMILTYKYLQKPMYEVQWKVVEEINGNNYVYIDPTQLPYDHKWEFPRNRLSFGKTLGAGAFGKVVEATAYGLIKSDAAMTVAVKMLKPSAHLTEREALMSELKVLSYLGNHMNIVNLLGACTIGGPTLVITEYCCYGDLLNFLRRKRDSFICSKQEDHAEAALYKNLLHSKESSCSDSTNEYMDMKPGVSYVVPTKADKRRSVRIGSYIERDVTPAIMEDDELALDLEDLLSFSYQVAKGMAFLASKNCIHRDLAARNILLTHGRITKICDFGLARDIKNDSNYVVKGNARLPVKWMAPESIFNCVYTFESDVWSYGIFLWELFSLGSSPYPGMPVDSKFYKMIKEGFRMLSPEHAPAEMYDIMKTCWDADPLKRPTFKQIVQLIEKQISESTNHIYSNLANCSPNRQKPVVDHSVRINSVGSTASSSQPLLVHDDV
Chain of Cyclin-dependent kinase 9 (P50750 whole entry): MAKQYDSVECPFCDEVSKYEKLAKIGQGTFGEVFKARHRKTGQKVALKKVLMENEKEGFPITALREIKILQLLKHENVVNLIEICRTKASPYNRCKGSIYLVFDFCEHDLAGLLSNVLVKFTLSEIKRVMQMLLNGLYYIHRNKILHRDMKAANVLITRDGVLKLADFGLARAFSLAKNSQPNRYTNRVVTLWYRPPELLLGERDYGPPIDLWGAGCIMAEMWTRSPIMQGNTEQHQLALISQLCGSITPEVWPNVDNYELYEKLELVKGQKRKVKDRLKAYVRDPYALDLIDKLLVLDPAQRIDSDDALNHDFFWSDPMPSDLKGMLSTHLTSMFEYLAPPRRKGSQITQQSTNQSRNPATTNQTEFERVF

SMILES: CN1CC[C@@H](c2c(O)cc(O)c3c(=O)cc(-c4ccccc4Cl)oc23)[C@@H]1CO
- Kd [1]: > 30 µM (inactive)

SMILES: Cc1cc(-c2cc(O)ccc2Cl)cc2nnc(Nc3ccc(OCCN4CCCC4)cc3)nc12
- Kd [1]: > 30 µM (inactive)

SMILES: COc1cc(CCc2cc(NC(=O)c3ccc(N4C[C@@H](C)N[C@@H](C)C4)cc3)n[nH]2)cc(OC)c1 [AZD-4547]
- Kd [3]: > 30 µM (inactive)

SMILES: O=C(c1ccc(F)c(F)c1Nc1ccc(I)cc1F)N1CC(O)([C@@H]2CCCCN2)C1 [COBIMETINIB]
- Kd [1]: > 30 µM (inactive)

SMILES: CO[C@H]1C[C@@H]2CC[C@@H](C)[C@@](O)(O2)C(=O)C(=O)N2CCCC[C@H]2C(=O)O[C@H]([C@H](C)C[C@@H]2CC[C@@H](OCCO)[C@H](OC)C2)CC(=O)[C@H](C)/C=C(\C)[C@@H](O)[C@@H](OC)C(=O)[C@H](C)C[C@H](C)/C=C/C=C/C=C/1C [EVEROLIMUS]
- Kd [8]: > 30 µM (inactive)

SMILES: Cc1cn(-c2cc(NC(=O)c3ccc(C)c(Nc4nccc(-c5cccnc5)n4)c3)cc(C(F)(F)F)c2)cn1 [NILOTINIB]
- Kd [1]: > 30 µM (inactive)

SMILES: C=CC(=O)N1CCC(Oc2cc3c(Nc4ccc(Cl)c(Cl)c4F)ncnc3cc2OC)CC1 [POZIOTINIB]
- Kd [1]: > 30 µM (inactive)

SMILES: CNC(=O)c1cc(Oc2ccc(NC(=O)Nc3ccc(Cl)c(C(F)(F)F)c3)c(F)c2)ccn1 [REGORAFENIB]
- Kd [4]: > 30 µM (inactive)
- Kd [5]: > 30 µM (inactive)
- Kd [6]: > 30 µM (inactive)
- Kd [7]: > 30 µM (inactive)

SMILES: CN1CCC(COc2cnc(-c3cccc(Cn4nc(-c5cccc(C#N)c5)ccc4=O)c3)nc2)CC1 [TEPOTINIB]
- Kd [10]: > 30 µM (inactive)

SMILES: CC(=O)Nc1cccc(-n2c(=O)n(C3CC3)c(=O)c3c(Nc4ccc(I)cc4F)n(C)c(=O)c(C)c32)c1 [TRAMETINIB]
- Kd [9]: > 30 µM (inactive)
- Kd [3]: > 30 µM (inactive)

SMILES: CC[C@@H]1C(=O)N(C)c2cnc(Nc3ccc(C(=O)N[C@H]4CC[C@H](N5CCN(CC6CC6)CC5)CC4)cc3OC)nc2N1C(C)C [VOLASERTIB]
- Kd [4]: > 30 µM (inactive)
- Kd [5]: > 30 µM (inactive)
- Kd [6]: > 30 µM (inactive)
- Kd [7]: > 30 µM (inactive)

Other lines, results leading:

- Kd [2]: > 30 µM (inactive)
SMILES: CCN1CCN(Cc2ccc(-c3cc4c(N[C@H](C)c5ccccc5)ncnc4[nH]3)cc2)CC1 [AEE-788]

- Kd [3]: > 30 µM (inactive)
SMILES: CCS(=O)(=O)N1CC(CC#N)(n2cc(-c3ncnc4[nH]ccc34)cn2)C1 [BARICITINIB]

- Kd [3]: > 30 µM (inactive)
SMILES: CNC(=O)c1ccc(-c2cnc3ncc(Cc4ccc5ncccc5c4)n3n2)cc1F [CAPMATINIB]

- Kd [4]: > 30 µM (inactive)
- Kd [5]: 0.56 µM (active)
- Kd [6]: > 30 µM (inactive)
- Kd [7]: > 30 µM (inactive)
SMILES: CCc1cnn2c(NCc3ccc[n+]([O-])c3)cc(N3CCCC[C@H]3CCO)nc12 [DINACICLIB]

- Kd [3]: > 30 µM (inactive)
SMILES: Cc1cc(Nc2cc(N3CCN(C)CC3)nc(/C=C/c3ccccc3)n2)n[nH]1 [ENMD-2076]

- Kd [2]: > 30 µM (inactive)
SMILES: O=C1NC(=O)/C(=C/c2ccc3nccc(-c4ccncc4)c3c2)S1 [GSK-1059615]

- Kd [4]: > 30 µM (inactive)
- Kd [5]: > 30 µM (inactive)
- Kd [6]: > 30 µM (inactive)
- Kd [7]: > 30 µM (inactive)
SMILES: CC[C@H](Nc1ncnc2[nH]cnc12)c1nc2cccc(F)c2c(=O)n1-c1ccccc1 [IDELALISIB]

- Kd [9]: > 30 µM (inactive)
SMILES: O=C(O)[C@]1(Cc2cccc(Nc3nccs3)n2)CC[C@@H](Oc2cccc(Cl)c2F)CC1 [MK-5108]
